The results in this text go back to patent publication EP0384522A1, “Antiviral tetrahydroimidazo[1,4]benzodiazepin-2-thiones” (priority 1989, dated 1990).

Converted amounts (≈) assume the structure as drawn. Read-outs that look alike come from different tables or passages of the source. Where only a bound is given, the exact number is not on record here.

As usually defined, the CC50 is the concentration giving 50% cytotoxicity.

Common to all, as to type: cell-based
The subject of one series is HIV. The series can be described thus: Inhibition of the HIV-induced cytopathic effect in MT-4 cells (MTT assay). The conditions noted are these: for ED₅₀ (50% effective dose): dose achieving 50% protection of HIV-infected MT-4 cells; for ED₅₀ (50% effective dose) / EC50: MTT, 540 nm; for EC50: Human immunodeficiency virus 1, MT4, dose achieving 50% protection of HIV-infected MT-4 cells, read-out: ED₅₀ (50% effective dose). Here is the method:
(§1) A rapid, sensitive and automated assay procedure was used for the in-vitro evaluation of anti-HIV agents. An […] T4-cell line, MT-4, which was previously shown (Koyanagi et al., Int. J. Cancer, 36, 445-451, 1985) to be highly susceptible to and permissive for HIV infection, served as the target cell line. Inhibition of the HIV-induced cytopathic effect was used as the end point. The viability of both HIV- and mock-infected cells was assessed spectrophotometrically via the in-situ reduction of 3-(4,5-dimethylthiazol-2-yl)-2,5-diphenyltetrazolium bromide (MTT). The 50% cytotoxic dose (CD₅₀ in µg/ml) was defined as the concentration of compound that reduced the absorbance of the mock-infected control sample by 50%. The percent protection achieved by the compound in HIV-infected cells was calculated by the following formula: [formula] whereby (ODT)HIV is the optical density measured with a given concentration of the test compound in HIV-infected cells; (ODC)HIV is the optical density measured for the control untreated HIV-infected cells; (ODC)MOCK is the optical density measured for the control untreated mock-infected cells; all optical density values were determined at 540 nm. The dose achieving 50% protection according to the above formula was defined as the 50% effective dose (ED₅₀ in µg/ml). The ratio of CD₅₀ to ED₅₀ was defined as the selectivity index (SI).
For orientation: Cytopathic effects are the visible damage that an infection or toxin causes in cultured cells.

Another series concerns mock-infected MT-4 cells. As to the kind of experiment: in vitro. As to conditions: human. The protocol:
as §1

A further series can be described thus: in vitro. As to conditions: human, mt-4 cells, CD₅₀ (50% cytotoxic dose). The protocol: as §1

For `CC(C)=CCN1Cc2cc(Cl)cc3[nH]c(=S)n(c23)C[C@@H]1C` [compound 3, (+)-(S)-9-chloro-4,5,6,7-tetrahydro-5-methyl-6-(3-methyl-2-butenyl)imidazo[4,5,1-jk][1,4]benzodiazepine-2(1H)-thione], in the series with HIV, the “SI (selectivity index)” value was found to be 20400 and the “ED₅₀ (50% effective dose)” value was found to be 0.0005 µg/mL. Also, in the series on mock-infected MT-4 cells, the “CD₅₀ (50% cytotoxic dose)” value turned out to be 10 µg/mL.

With `CC(C)=CCN1Cc2cccc3[nH]c(=S)n(c23)C[C@H]1C` [compound 6], the EC50 in the series on HIV was 0.045 µg/mL (≈ 0.157 µM). In addition, in the series on HIV (ratio of CD₅₀ to ED₅₀), the “SI (selectivity index)” value was “≧5555”. This compound also had a CC50 in the series “in vitro” not below 250 µg/mL.

For the compound `CC(C)=CCN1Cc2cc(Cl)cc3[nH]c(=S)n(c23)C[C@@H]1C` [compound 7], in the series with HIV, the “SI (selectivity index)” value is 12778 and the “ED₅₀ (50% effective dose)” value was 0.0018 µg/mL. In addition, the “CD₅₀ (50% cytotoxic dose)” value with mock-infected MT-4 cells was 23 µg/mL.

As to `CCCN1Cc2cccc3[nH]c(=S)n(c23)CC1C` (stereo not drawn) [compound 1, 4,5,6,7-tetrahydro-5-methyl-6-propylimidazo-[4.5.1-jk][1,4]benzodiazepine-2(1H)-thione], the EC50 with HIV stood at 0.155 µg/mL (≈ 0.593 µM). In the series on HIV (ratio of CD₅₀ to ED₅₀), the “SI (selectivity index)” value stood at 948. In the series “in vitro”, this compound showed a CC50 of 147 µg/mL (≈ 562 µM).

On to `CC(C)=CCN1Cc2cccc3[nH]c(=S)n(c23)C[C@@H]1C` [compound 5, (+)-(S)-4,5,6,7-tetrahydro-5-methyl-6-(3-methyl-2-butenyl)imidazo[4,5,1-jk] [1,4]benzodiazepine-2(1H)-thione], for which the EC50 with HIV is 0.008 µg/mL (≈ 0.0278 µM). In addition, the “SI (selectivity index)” value in the series with HIV (ratio of CD₅₀ to ED₅₀) worked out at 40625. The compound further showed a CC50 in “in vitro” of 325 µg/mL (≈ 1130 µM).

For the compound `CC(C)=CCN1Cc2cccc3[nH]c(=S)n(c23)CC1C` (racemic) [compound 4, (±)-4,5,6,7-tetrahydro-5-methyl-6-(3-methyl-2-butenyl)imidazo[4,5,1-jk][1,4]benzodiazepine-2(1H)-thione], in the series with HIV, the EC50 worked out at 0.013 µg/mL (≈ 0.0452 µM). In addition, the “SI (selectivity index)” value in the series with HIV (ratio of CD₅₀ to ED₅₀) was 1923. In addition, in the series “in vitro”, the CC50 stood at 25 µg/mL (≈ 87 µM).

`C[C@H]1Cn2c(=S)[nH]c3cccc(c32)CN1CC1CC1` [compound 9]: the EC50 with HIV came out at 0.0166 µg/mL (≈ 0.0607 µM). For the same compound, in the series with HIV (ratio of CD₅₀ to ED₅₀), the “SI (selectivity index)” value was more than 15029. The same compound returned a CC50 in “in vitro” of more than 250 µg/mL.

With `C=C(C)CN1Cc2cccc3[nH]c(=S)n(c23)C[C@@H]1C` [compound 8], the EC50 with HIV worked out at 0.0126 µg/mL (≈ 0.0461 µM). Besides, the “SI (selectivity index)” value with HIV (ratio of CD₅₀ to ED₅₀) is 365. Half-maximal cytotoxicity in “in vitro” (CC50) was put at 4.6 µg/mL (≈ 16.8 µM).
